These results are taken from US9266904B2, “6-bridged heteroaryldihydropyrimidines for the treatment and prophylaxis of hepatitis B virus infection” (priority 2013, dated 2016).

Each structure is given as a SMILES string. pEC50: −log10 of the molar value. ≈ marks a conversion by molar mass, not a printed value. Where two headings read alike, the source gives them in different places.

For series [1], the system named is HBV replication in HepG2.2.15 cells. The series can be described thus: Anti-HBV activity in vitro in HepG2.2.15 cells (extracellular HBV DNA by qPCR). The format is cell-based. To be noted: Hepatitis B virus, HepG2.2.15, Anti-HBV activity in HepG2.2.15 cells; read-out: EC50. Summed up: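 Constitutively HBV-producing HepG2.2.15 cells were seeded overnight at 37 °C, then treated with half-log serial dilutions of compound (0.5% DMSO final) for five days. Supernatant HBV DNA was extracted and quantified by qPCR; EC50 is the concentration inhibiting HBV replication by 50%.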

Series [2] can be described thus: Lyophilisation solubility assay (Lysa). The format is physicochemical. To be noted: thermodynamic from solid. How it is done: The aqueous solubility is an important physico-chemical property that plays a significant role in various physical and biological processes. It is desirable to have good solubility which enables good permeability and gastric and intestinal absorption, linear dose proportionality, less PK variability, and easy formulation for PD/PK studies. […] Lyophilisation solubility assay (Lysa) is a well adopted high throughput assay to measure compound solubility in industry.
Samples are prepared in duplicate from 10 mM DMSO stock solutions. After evaporation of DMSO with a centrifugal vacuum evaporator, the residue is solved in 0.05 M phosphate buffer (pH 6.5), stirred for one hour and then shook for two hours. After one night, the solution is filtered using a microtiter filter plate and then the filtrate and its 1/10 dilution are then analyzed by direct UV measurement or by HPLC-UV. In addition a four-point calibration curve is prepared from the 10 mM stock solutions and used for the solubility determination of the compounds. The results are in μg/ml. In case the percentage of sample measured in solution after evaporation divided by the calculated maximum of sample amount is bigger than 80% the solubility is reported as bigger than this value.

The nature of series [3]: Human microsomal clearance assay. The format is in vitro ADME. How it is done:
Microsomes were preincubated with test compound for 10 minutes at 37° C. in 100 mM phosphate buffer with pH 7.4. The reactions were initiated by adding NADPH regenerating system to give a final incubation volume of 400 μL. The incubations finally contained 1 μM test compound, 0.5 mg/mL liver microsomal protein, 3.0 mM glucose 6-phosphate, 1.0 mM NADP, 3.0 mM MgCl2 and 0.05 mg/mL glucose 6-phosphate dehydrogenase in 100 mM phosphate buffer with pH 7.4. After incubation times of 0, 3, 6, 9, 15 and 30 minutes, 50 μL, incubation was transferred to the quench solution containing the internal standard which was 2 μM tolbutamide. After precipitation and centrifugation, test compound concentrations in the samples were determined by LC-MS/MS. Controls of no NADPH regenerating system at zero and 30 minutes were also prepared and analyzed.

For `COC(=O)C1=C(CN2C3COCC2C(C(=O)O)C3)NC(c2nccs2)=N[C@H]1c1ccc(F)cc1Cl` (stereo partly drawn) [Example 6, 8-[(R)-6-(2-Chloro-4-fluoro-phenyl)-5-methoxycarbonyl-2-thiazol-2-yl-3,6-dihydro-pyrimidin-4-ylmethyl]-3-oxa-8-aza-bicyclo[3.2.1]octane-6-carboxylic acid], the pEC50 in series [1] is 7.49. Also, the solubility thermodynamic in series [2] (pH 6.5, aqueous buffer) was greater than 665 µg/mL. In series [3] (human, 1 μM, pH 7.4), this molecule registered a CLh of 0.5 mL/min/kg.

`COC(=O)C1=C(CN2[C@@H]3C[C@H](CC(=O)O)C[C@H]2C(F)(F)C3)NC(c2nccs2)=N[C@H]1c1ccc(F)c(F)c1` [Example 114, 2-[(1R,3S,5S)-8-[[(4S)-4-(3,4-difluorophenyl)-5-methoxycarbonyl-2-thiazol-2-yl-1,4-dihydropyrimidin-6-yl]methyl]-6,6-difluoro-8-azabicyclo[3.2.1]octan-3-yl]acetic acid]: the pEC50 in series [1] was 8.20. This molecule also returned a solubility thermodynamic in series [2] (pH 6.5, aqueous buffer) of 224 µg/mL (≈ 405 µM). This molecule yielded a CLh in series [3] (human, 1 μM, pH 7.4) of 1.2 mL/min/kg.

For `COC(=O)C1=C(CN2[C@H]3C[C@@H](CC(=O)O)C[C@@H]2C(F)(F)C3)NC(c2nccs2)=N[C@H]1c1ccc(F)c(F)c1` [Example 115, 2-[(1S,3R,5R)-8-[[(4S)-4-(3,4-difluoro-phenyl)-5-methoxycarbonyl-2-thiazol-2-yl-1,4-dihydropyrimidin-6-yl]methyl]-6,6-difluoro-8-azabicyclo[3.2.1]octan-3-yl]acetic acid], the negative-log EC50 (pEC50) in series [1] was 6.79. In series [2] (pH 6.5, aqueous buffer), this molecule yielded a solubility thermodynamic of 128 µg/mL (≈ 232 µM). The molecule also gave a CLh in series [3] (human, 1 μM, pH 7.4) of 4.6 mL/min/kg.

Take `COC(=O)C1=C(CN2C3COCC2CC(N)(C(=O)O)C3)NC(c2nccs2)=N[C@H]1c1ccc(F)cc1Cl` (stereo partly drawn) [Example 139, 7-amino-9-[[(4R)-4-(2-chloro-4-fluoro-phenyl)-5-methoxycarbonyl-2-thiazol-2-yl-1,4-dihydropyrimidin-6-yl]methyl]-3-oxa-9-azabicyclo[3.3.1]nonane-7-carboxylic acid]: the pEC50 in series [1] is 6.76. The solubility thermodynamic in series [2] (pH 6.5, aqueous buffer) was greater than 610 µg/mL. This molecule registered a CLh in series [3] (human, 1 μM, pH 7.4) of 5.1 mL/min/kg.

For `COC(=O)C1=C(CN2[C@H]3CC[C@]2(C(=O)O)COC3)NC(c2nccs2)=N[C@H]1c1ccc(F)c(F)c1C` [Example 84, (1S,5R)-8-[[(4S)-4-(3,4-difluoro-2-methyl-phenyl)-5-methoxycarbonyl-2-thiazol-2-yl-1,4-dihydropyrimidin-6-yl]methyl]-3-oxa-8-azabicyclo[3.2.1]octane-5-carboxylic acid], the pEC50 in series [1] was 7.42. In series [2] (pH 6.5, aqueous buffer), the solubility thermodynamic was greater than 643 µg/mL. This molecule showed a CLh in series [3] (human, 1 μM, pH 7.4) of 0 mL/min/kg.

In the case of `COC(=O)C1=C(CN2[C@@H]3COC[C@H]2CC(OCC(=O)O)C3)NC(c2nccs2)=N[C@H]1c1ccc(F)cc1Cl` (stereo partly drawn) [Example 46, 2-[[(1R,5S)-9-[[(4R)-4-(2-chloro-4-fluoro-phenyl)-5-methoxycarbonyl-2-thiazol-2-yl-1,4-dihydropyrimidin-6-yl]methyl]-3-oxa-9-azabicyclo[3.3.1]nonan-7-yl]oxy]acetic acid], the pEC50 in series [1] was 7.06. Also, the solubility thermodynamic in series [2] (pH 6.5, aqueous buffer) is greater than 685 µg/mL. The same molecule displayed a CLh in series [3] (human, 1 μM, pH 7.4) of 4.0 mL/min/kg.

For the molecule `COC(=O)C1=C(CN2[C@@H]3C[C@H](CC(=O)O)C[C@H]2C(F)(F)C3)NC(c2nccs2)=N[C@H]1c1ccc(F)cc1Cl` [Example 86, 2-[(1R,3S,5S)-8-[[(4R)-4-(2-chloro-4-fluoro-phenyl)-5-methoxycarbonyl-2-thiazol-2-yl-1,4-dihydropyrimidin-6-yl]methyl]-6,6-difluoro-8-azabicyclo[3.2.1]octan-3-yl]acetic acid], the pEC50 in series [1] is 8.70. In series [2] (pH 6.5, aqueous buffer), this molecule yielded a solubility thermodynamic of 149 µg/mL (≈ 262 µM). Further, the CLh in series [3] (human, 1 μM, pH 7.4) came to 0 mL/min/kg.

As for `COC(=O)C1=C(CN2C3COCC2C(O)[C@H](CC(=O)O)C3)NC(c2nccs2)=N[C@H]1c1ccc(F)cc1Cl` (stereo partly drawn) [Example 123, 2-[(7S)-9-[[(4R)-4-(2-chloro-4-fluoro-phenyl)-5-methoxycarbonyl-2-thiazol-2-yl-1,4-dihydropyrimidin-6-yl]methyl]-6-hydroxy-3-oxa-9-azabicyclo[3.3.1]nonan-7-yl]acetic acid], the pEC50 in series [1] is 7.45. In series [2] (pH 6.5, aqueous buffer), this molecule registered a solubility thermodynamic greater than 753 µg/mL. The molecule further displayed a CLh in series [3] (human, 1 μM, pH 7.4) of 3.0 mL/min/kg.

On to `COC(=O)C1=C(CN2C3COCC2CC(C(=O)O)C3)NC(c2nc(C)cs2)=N[C@H]1c1ccc(F)cc1Cl` (stereo partly drawn) [Example 2, 9-[(R)-6-(2-Chloro-4-fluoro-phenyl)-5-methoxycarbonyl-2-(4-methyl-thiazol-2-yl)-3,6-dihydro-pyrimidin-4-ylmethyl]-3-oxa-9-aza-bicyclo[3.3.1]nonane-7-carboxylic acid], for which the pEC50 in series [1] is 6.94. Further, the solubility thermodynamic in series [2] (pH 6.5, aqueous buffer) was determined as 450 µg/mL (≈ 820 µM). This molecule yielded a CLh in series [3] (human, 1 μM, pH 7.4) of 3.2 mL/min/kg.

Turning to `CCOC(=O)C1=C(CN2C3COCC2CC(CC(=O)O)C3)NC(c2nccs2)=N[C@H]1c1ccc(F)c(F)c1` (stereo partly drawn) [Example 29, (S)-6-(7-Carboxymethyl-3-oxa-9-aza-bicyclo[3.3.1]non-9-ylmethyl)-4-(3,4-difluoro-phenyl)-2-thiazol-2-yl-1,4-dihydro-pyrimidine-5-carboxylic acid ethyl ester], in series [1], the pEC50 is 7.46. The solubility thermodynamic in series [2] (pH 6.5, aqueous buffer) is greater than 600 µg/mL. Moreover, in series [3] (human, 1 μM, pH 7.4), the CLh came out at 1.7 mL/min/kg.

Turning to `COC(=O)C1=C(CN2CC3(F)CC2(C(=O)O)C3)NC(c2nccs2)=N[C@H]1c1ccc(F)cc1Cl` [Example 40, 2-[(R)-6-(2-Chloro-4-fluoro-phenyl)-5-methoxycarbonyl-2-thiazol-2-yl-3,6-dihydro-pyrimidin-4-ylmethyl]-4-fluoro-2-aza-bicyclo[2.1.1]hexane-1-carboxylic acid], the pEC50 in series [1] is 7.49. Further, the solubility thermodynamic in series [2] (aqueous buffer, 0.05 M phosphate buffer (pH 6.5), reported as bigger than the value if more than 80% of the sample is in solution, read-out: Lysa) was greater than 634 µg/mL. In series [3] (human microsomal clearance), this molecule had a CLh of 1.4 mL/min/kg.

For `COC(=O)C1=C(CN2C3COCC2CC(C(=O)O)C3)NC(c2nccs2)=N[C@H]1c1ccc(F)cc1Cl` (stereo partly drawn) [Example 1, 9-[[(4R)-4-(2-chloro-4-fluoro-phenyl)-5-methoxycarbonyl-2-thiazol-2-yl-1,4-dihydropyrimidin-6-yl]methyl]-3-oxa-9-azabicyclo[3.3.1]nonane-7-carboxylic acid], the pEC50 in series [1] was 7.23. Also, in series [2] (pH 6.5, aqueous buffer), the solubility thermodynamic amounted to 540 µg/mL (≈ 1010 µM). The molecule further had a CLh in series [3] (human, 1 μM, pH 7.4) of 3.0 mL/min/kg.

As for `CCOC(=O)C1=C(CN2C3COCC2C(OCC(=O)O)C3)NC(c2nccs2)=N[C@H]1c1ccc(F)cc1Br` (mixture of isomers) [Example 50, 2-[[8-[[(4R)-4-(2-bromo-4-fluoro-phenyl)-5-ethoxycarbonyl-2-thiazol-2-yl-1,4-dihydropyrimidin-6-yl]methyl]-3-oxa-8-azabicyclo[3.2.1]octan-6-yl]oxy]acetic acid], the pEC50 in series [1] is 7.62. Moreover, in series [2] (pH 6.5, aqueous buffer), the solubility thermodynamic was greater than 724 µg/mL. This molecule had a CLh in series [3] (human, 1 μM, pH 7.4) of 1.4 mL/min/kg.

As to `COC(=O)C1=C(CN2[C@H]3CC[C@]2(C(=O)O)COC3)NC(c2nccs2)=N[C@H]1c1ccc(F)cc1Cl` [Example 81, (1S,5R)-8-[[(4R)-4-(2-chloro-4-fluoro-phenyl)-5-methoxycarbonyl-2-thiazol-2-yl-1,4-dihydropyrimidin-6-yl]methyl]-3-oxa-8-azabicyclo[3.2.1]octane-5-carboxylic acid], the pEC50 in series [1] is 7.39. The solubility thermodynamic in series [2] (pH 6.5, aqueous buffer) is greater than 673 µg/mL. In series [3] (human, 1 μM, pH 7.4), this molecule registered a CLh of 0 mL/min/kg.

Take `COC(=O)C1=C(CN2C3COCC2CC(CC(=O)O)C3)NC(c2nccs2)=N[C@H]1c1ccc(Cl)c(F)c1` (stereo partly drawn) [Example 136, Endo-2-[9-[[(4S)-4-(4-chloro-3-fluoro-phenyl)-5-methoxycarbonyl-2-thiazol-2-yl-1,4-dihydropyrimidin-6-yl]methyl]-3-oxa-9-azabicyclo[3.3.1]nonan-7-yl]acetic acid]: in series [1], the pEC50 was 6.99. Further, the solubility thermodynamic in series [2] (pH 6.5, aqueous buffer) turned out to be 485 µg/mL (≈ 883 µM). In series [3] (human, 1 μM, pH 7.4), this molecule came in with a CLh of 5.5 mL/min/kg.

In series [2] (pH 6.5, aqueous buffer), `COC(=O)C1=C(CN2[C@@H]3CC[C@H]2C[C@@H](O)C3)NC(c2nccs2)=N[C@H]1c1ccc(F)cc1Cl` [Example 44, (R)-4-(2-Chloro-4-fluoro-phenyl)-6-((1R,3R,5S)-3-hydroxy-8-aza-bicyclo[3.2.1]oct-8-ylmethyl)-2-thiazol-2-yl-1,4-dihydro-pyrimidine-5-carboxylic acid methyl ester] gave a solubility thermodynamic greater than 623 µg/mL. Further, the CLh in series [3] (human, 1 μM, pH 7.4) is 7.1 mL/min/kg.

As usually defined, the pEC50 is −log10 of the EC50, conventionally taken in molar units.
